Our source for the inhibition values is patent US9115137B2, “2,3,4,5-tetrahydro-1H-pyrido[4,3-B]indole compounds and methods of use thereof” (priority 2008, dated 2015).

In assay [1] the target is T1, human recombinant serotonin (5-Hydroxytryptamine) 5-HT6 receptor (Homo sapiens, UniProt P50406).
T1 construct: expressed in transfected cells; host or cells: human HeLa cells
As to the kind of experiment: Serotonin 5-HT6 radioligand binding ([3H]LSD). As to conditions: compound at 1 μM; HeLa cells; read-out: Serotonin (1 μM) 5-HT6, percent inhibition of specific binding. As to the method:
To evaluate in radioligand binding assays the activity of compounds of the invention, human recombinant serotonin (5-Hydroxytryptamine) 5-HT6 receptor expressed in human HeLa cells (Monsma, F. J. Jr. et al., Mol. Pharmacol. 43:320, 1993) in a modified Tris-HCl buffer (50 mM Tris-HCl, pH 7.4, 150 mM NaCl, 2 mM Ascorbic Acid, 0.001% BSA) was used. Compounds of the invention were incubated with 1.5 nM [3H]Lysergic acid diethylamide (LSD) for 120 minutes at 37° C. Non-specific binding was estimated in the presence of 5 μM Serotonin (5-HT). Receptor proteins were filtered and washed, the filters were then counted to determine [3H]LSD specifically bound. Compounds were screened at 1 μM or lower, using 1% DMSO as vehicle. Biochemical assay results are presented as the percent inhibition of specific binding in Table 7.

Assay [2] addresses T2, human recombinant adrenergic α2B receptor (Homo sapiens, UniProt P18089).
T2 construct: expressed in transfected cells; host or cells: CHO-K1 cells
T2 sequence (P18089 1-450): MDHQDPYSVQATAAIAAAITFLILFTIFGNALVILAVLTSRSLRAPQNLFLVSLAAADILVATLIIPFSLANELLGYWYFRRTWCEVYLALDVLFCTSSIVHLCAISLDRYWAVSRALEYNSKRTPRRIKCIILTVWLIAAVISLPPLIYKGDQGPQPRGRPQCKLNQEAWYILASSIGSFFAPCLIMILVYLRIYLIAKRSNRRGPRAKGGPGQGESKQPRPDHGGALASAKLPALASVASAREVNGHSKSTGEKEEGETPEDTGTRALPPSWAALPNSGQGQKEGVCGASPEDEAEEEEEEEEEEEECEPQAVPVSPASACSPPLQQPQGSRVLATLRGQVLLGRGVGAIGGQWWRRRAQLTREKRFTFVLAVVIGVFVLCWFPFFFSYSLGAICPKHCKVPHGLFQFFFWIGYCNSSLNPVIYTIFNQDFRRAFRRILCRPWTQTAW
Nature of the assay: Adrenergic α2B radioligand binding ([3H]Rauwolscine). Particulars: compound at 1 μM; CHO-K1 cells; read-out: Adrenergic (1 μM) α2B, percent inhibition of specific binding. The procedure:
To evaluate in radioligand binding assays the activity of compounds of the invention, human recombinant adrenergic α2B receptor expressed in Chinese hamster ovary (CHO-K1) cells (Uhlen S et al. Eur. J. Pharmacol. 343(1):93, 1998) in a modified Tris-HCl buffer (50 mM Tris-HCl, pH 7.4, 12.5 mM MgCl2, 1 mM EDTA, 0.2% BSA) was used. Compounds of the invention were incubated with 2.5 nM [3H]Rauwolscine for 60 minutes at 25° C. Non-specific binding was estimated in the presence of 10 μM Prozosin. Receptor proteins were filtered and washed, the filters were then counted to determine [^3H]Rauwolscine specifically bound. Compounds were screened at 1 μM or lower, using 1% DMSO as vehicle. Biochemical assay results are presented as the percent inhibition of specific binding in Table 6.

Assay [3] deals with T3, human recombinant dopamine D2L receptor (Homo sapiens, UniProt P14416).
T3 construct: expressed in transfected cells; host or cells: CHO cells
Nature of the assay: Dopamine D2L radioligand binding ([3H]Spiperone). Particulars: compound at 1 μM; CHO cells; read-out: Dopamine (1 μM) D2L, percent inhibition of specific binding. As to the method:
To evaluate in radioligand binding assays the activity of compounds of the invention, human recombinant dopamine D2L receptor expressed in Chinese hamster ovary (CHO) cells (Grandy, D. K. et al. Proc. Natl. Acad. Sci. USA. 86:9762, 1989; Hayes, G. et al., Mol. Endocrinol. 6:920, 1992) in a modified Tris-HCl buffer (50 mM Tris-HCl, pH 7.4, 1.4 mM Ascorbic Acid, 0.001% BSA, 150 mM NaCl) was used. Compounds of the invention were incubated with 0.16 nM [^3H]Spiperone for 120 minutes at 25° C. Non-specific binding was estimated in the presence of 10 μM Haloperidol. Receptor proteins were filtered and washed, the filters were then counted to determine [^3H]Spiperone specifically bound. Compounds were screened at 1 μM or lower, using 1% DMSO as vehicle. Biochemical assay results are presented as the percent inhibition of specific binding in Table 6.

In assay [4] the target is T4, human recombinant adrenergic α2A receptor (Homo sapiens, UniProt P08913).
T4 construct: expressed in transfected cells; host or cells: insect Sf9 cells
T4 sequence (P08913 1-465): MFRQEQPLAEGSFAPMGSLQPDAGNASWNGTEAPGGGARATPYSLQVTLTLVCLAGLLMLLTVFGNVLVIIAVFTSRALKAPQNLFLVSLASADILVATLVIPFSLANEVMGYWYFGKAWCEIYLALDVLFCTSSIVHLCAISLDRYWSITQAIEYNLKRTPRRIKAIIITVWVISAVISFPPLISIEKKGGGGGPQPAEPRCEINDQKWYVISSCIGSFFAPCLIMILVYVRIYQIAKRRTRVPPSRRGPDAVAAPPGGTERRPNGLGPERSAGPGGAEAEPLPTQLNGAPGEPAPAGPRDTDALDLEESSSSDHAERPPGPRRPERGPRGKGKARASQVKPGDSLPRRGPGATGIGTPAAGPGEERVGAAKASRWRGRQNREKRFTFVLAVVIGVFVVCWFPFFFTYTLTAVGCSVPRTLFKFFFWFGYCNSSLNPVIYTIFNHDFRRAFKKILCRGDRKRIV
Nature of the assay: Adrenergic α2A radioligand binding ([3H]MK-912). Particulars: compound at 1 μM; insect Sf9 cells; read-out: Adrenergic (1 μM) α2A, percent inhibition of specific binding. As to the method:
To evaluate in radioligand binding assays the activity of compounds of the invention, human recombinant adrenergic α2A receptor expressed in insect Sf9 cells (Uhlen S et al. J Pharmacol Exp Ther. 271:1558, 1994) in a modified Tris-HCl buffer (50 mM Tris-HCl, pH 7.4, 12.5 mM MgCl2, 2 mM EDTA) was used. Compounds of invention were incubated with 1 nM [^3H]MK-912 for 60 minutes at 25° C. MK912 is (2S-trans)-1,3,4,5′,6,6′,7,12b-octahydro-1′,3′-dimethyl-spiro[2H-benzofuro[2,3-a]quinolizine-2,4′(1′H)-pyrimidin]-2′(3′H)-one hydrochloride Non-specific binding was estimated in the presence of 10 μM WB-4101 (2-(2,6-Dimethoxyphenoxyethyl)aminomethyl-1,4-benzodioxane hydrochloride). Receptor proteins were filtered and washed, the filters were then counted to determine [^3H]MK-912 specifically bound. Compounds were screened at 1 μM or lower, using 1% DMSO as vehicle. Biochemical assay results are presented as the percent inhibition of specific binding in Table 6.

T3 sequence (P14416 whole entry): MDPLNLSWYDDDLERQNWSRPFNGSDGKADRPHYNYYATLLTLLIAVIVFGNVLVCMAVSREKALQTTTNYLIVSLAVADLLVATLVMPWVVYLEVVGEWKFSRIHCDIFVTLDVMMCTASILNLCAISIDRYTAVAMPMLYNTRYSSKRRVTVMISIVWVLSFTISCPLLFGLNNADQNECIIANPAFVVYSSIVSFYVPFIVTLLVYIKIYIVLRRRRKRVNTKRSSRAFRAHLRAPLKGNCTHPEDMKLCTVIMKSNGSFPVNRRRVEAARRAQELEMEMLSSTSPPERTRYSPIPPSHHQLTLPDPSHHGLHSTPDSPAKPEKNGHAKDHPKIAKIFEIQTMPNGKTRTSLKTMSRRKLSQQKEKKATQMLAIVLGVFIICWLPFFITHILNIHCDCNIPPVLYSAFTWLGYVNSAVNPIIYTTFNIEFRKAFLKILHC
T1 sequence (P50406 whole entry): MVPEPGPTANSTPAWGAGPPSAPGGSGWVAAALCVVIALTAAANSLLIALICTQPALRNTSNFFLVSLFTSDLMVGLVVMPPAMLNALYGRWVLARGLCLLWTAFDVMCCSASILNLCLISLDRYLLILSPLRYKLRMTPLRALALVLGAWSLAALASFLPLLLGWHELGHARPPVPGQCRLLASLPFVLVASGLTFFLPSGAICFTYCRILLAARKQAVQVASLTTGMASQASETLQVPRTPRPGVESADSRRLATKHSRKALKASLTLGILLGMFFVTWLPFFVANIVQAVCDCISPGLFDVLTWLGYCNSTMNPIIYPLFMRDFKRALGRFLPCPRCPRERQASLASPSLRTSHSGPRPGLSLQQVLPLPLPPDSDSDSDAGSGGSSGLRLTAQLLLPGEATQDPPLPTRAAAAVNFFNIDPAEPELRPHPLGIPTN

Take `CN1CCc2c(c3cc(Cl)ccc3n2CCC#N)C1` [CD94, 3-(8-chloro-2-methyl-3,4-dihydro-1H-pyrido[4,3-b]indol-5(2H)-yl)propanenitrile]: the inhibition at 1 µM worked out at 40% in assay [1], 86% in assay [2], 1% in assay [3] and 73% in assay [4].

In the case of `Cc1ccc2c(c1)c1c(n2CCC(=O)NC(C)(C)C)CCN(C)C1` [Compound 28], the inhibition at 1 µM in assay [1] was 47%; in assay [2], 85%; in assay [3], -1%; in assay [4] it was 44%.

With `CC(C)OC(=O)Cn1c2c(c3cc(Cl)ccc31)CN(C)CC2` [Compound 11, isopropyl 2-(8-chloro-1,2,3,4-tetrahydro-2-methylpyrido[4,3-b]indol-5-yl)acetate], the inhibition at 1 µM in assay [1] is 66%; in assay [2], 69%; in assay [3], 10%; in assay [4] it was 25%.

In the case of `CN1CCc2c(c3cc(Cl)ccc3n2CC(N)=O)C1` [Compound 45, 2-(8-chloro-1,2,3,4-tetrahydro-2-methylpyrido[4,3-b]indol-5-yl)acetamide], the inhibition at 1 µM turned out to be 5% in assay [1], 18% in assay [2], 7% in assay [3] and 16% in assay [4].

`Cc1ccc2c(c1)c1c(n2CCBr)CCN(C)C1` [CD91, 5-(2-bromoethyl)-2,8-dimethyl-2,3,4,5-tetrahydro-1H-pyrido[4,3-b]indole]: the inhibition at 1 µM in assay [1] came out at 88%; in assay [2], 102%; in assay [3], 15%; in assay [4] it was 86%.

Take `Cc1ccc2c(c1)c1c(n2CC(=O)NCc2ccccc2)CCN(C)C1` [Compound 25, N-benzyl-2-(1,2,3,4-tetrahydro-2,8-dimethylpyrido[4,3-b]indol-5-yl)acetamide]: the inhibition at 1 µM in assay [1] was 58%; in assay [2], 38%; in assay [3], -3%; in assay [4], 2%.

As for `CN1CCc2c(c3cc(Cl)ccc3n2CC(=O)OCc2ccccc2)C1` [Compound 13, benzyl 2-(8-chloro-1,2,3,4-tetrahydro-2-methylpyrido[4,3-b]indol-5-yl)acetate], the inhibition at 1 µM in assay [1] is 101%; in assay [2], 97%; in assay [3] it was 38%; in assay [4], 73%.

With `Cc1ccc2c(c1)c1c(n2CC(=O)NCC2CCCCC2)CCN(C)C1` [Compound 26, N-(cyclohexylmethyl)-2-(1,2,3,4-tetrahydro-2,8-dimethylpyrido[4,3-b]indol-5-yl)acetamide], the inhibition at 1 µM in assay [1] was 34%; in assay [2], 45%; in assay [3], -4%; in assay [4] it was 22%.

`CN1CCc2c(c3cc(Cl)ccc3n2CC(=O)OCC2CCCCC2)C1` [Compound 14, cyclohexylmethyl 2-(8-chloro-1,2,3,4-tetrahydro-2-methylpyrido[4,3-b]indol-5-yl)acetate]: the inhibition at 1 µM stood at 106% in assay [1], 103% in assay [2], 31% in assay [3] and 79% in assay [4].

For `Cc1ccc2c(c1)c1c(n2CC(=O)NC(C)C)CCN(C)C1` [Compound 23, 2-(1,2,3,4-tetrahydro-2,8-dimethylpyrido[4,3-b]indol-5-yl)-N-isopropylacetamide], the inhibition at 1 µM is 3% in assay [1], 18% in assay [2], 5% in assay [3] and 12% in assay [4].

In the case of `Cc1ccc2c(c1)c1c(n2CCNC(=O)c2ccncc2C)CCN(C)C1` [Compound 69, N-(2-(1,2,3,4-tetrahydro-2,8-dimethylpyrido[4,3-b]indol-5-yl)ethyl)-3-methylpyridine-4-carboxamide], the inhibition at 1 µM in assay [1] is -4%; in assay [2], 39%; in assay [3], 4%; in assay [4], 25%.

With `Cc1ccc2c(c1)c1c(n2CC(=O)NC(C)(C)C)CCN(C)C1` [Compound 24, N-tert-butyl-2-(1,2,3,4-tetrahydro-2,8-dimethylpyrido[4,3-b]indol-5-yl)acetamide], the inhibition at 1 µM in assay [1] stood at 6%; in assay [2], 13%; in assay [3] it was 3%; in assay [4] it was 10%.

For the compound `CN1CCc2c(c3cc(Cl)ccc3n2CCC(=O)OCC2CCCCC2)C1` [Compound 20, cyclohexylmethyl 3-(8-chloro-1,2,3,4-tetrahydro-2-methylpyrido[4,3-b]indol-5-yl)propanoate], the inhibition at 1 µM in assay [1] was determined as 93%; in assay [2], 103%; in assay [3], 19%; in assay [4] it was 95%.

As for `Cc1ccc2c(c1)c1c(n2CC(=O)O)CCN(C)C1` [CD58, 2-(1,2,3,4-tetrahydro-2,8-dimethylpyrido[4,3-b]indol-5-yl)acetic acid], the inhibition at 1 µM in assay [1] is -5%; in assay [2], -6%; in assay [3], 2%; in assay [4], -7%.

As to `Cc1ccc2c(c1)c1c(n2CCC(=O)Nc2ccc(F)cc2)CCN(C)C1` [Compound 47, N-(4-fluorophenyl)-3-(1,2,3,4-tetrahydro-2,8-dimethylpyrido[4,3-b]indol-5-yl)propanamide], the inhibition at 1 µM was 63% in assay [1], 96% in assay [2], -3% in assay [3] and 73% in assay [4].

A word on the inhibition: it is the relative decrease from the control value, in per cent.
